Measured values published in ChEMBL document CHEMBL2429821, “A Casein kinase 1/Checkpoint kinase 1 pyrazolo-pyridine protein kinase inhibitor as novel activator of the p53 pathway” (Bioorg Med Chem Lett, 2013).
Values belong to the molecule of their own block, whether it stands above or below them. The source made the active and inactive calls. The rule behind the calls is not given here.

How the values were obtained:
[1] = target: T1, Casein kinase I/MDM2 (Homo sapiens) (UniProt Q00987+P48729); experiment: Inhibition of CK1-MDM2 complex in human A375 cells assessed as increase in […] protein level at 0.2 to 40 uM after 24 hrs by immunoblotting analysis; assay type: cell-based; details: A-375
T1 sequence (P48729 whole entry, looked up): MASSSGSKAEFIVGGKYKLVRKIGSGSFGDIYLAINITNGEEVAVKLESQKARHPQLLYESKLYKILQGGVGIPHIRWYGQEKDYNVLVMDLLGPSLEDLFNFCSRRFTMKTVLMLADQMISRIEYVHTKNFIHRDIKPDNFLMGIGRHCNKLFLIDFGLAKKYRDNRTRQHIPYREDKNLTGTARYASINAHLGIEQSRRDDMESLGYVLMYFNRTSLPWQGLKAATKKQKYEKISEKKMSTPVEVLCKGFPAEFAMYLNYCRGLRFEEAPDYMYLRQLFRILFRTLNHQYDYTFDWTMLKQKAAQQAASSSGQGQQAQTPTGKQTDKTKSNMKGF
T1 sequence (Q00987 whole entry, looked up): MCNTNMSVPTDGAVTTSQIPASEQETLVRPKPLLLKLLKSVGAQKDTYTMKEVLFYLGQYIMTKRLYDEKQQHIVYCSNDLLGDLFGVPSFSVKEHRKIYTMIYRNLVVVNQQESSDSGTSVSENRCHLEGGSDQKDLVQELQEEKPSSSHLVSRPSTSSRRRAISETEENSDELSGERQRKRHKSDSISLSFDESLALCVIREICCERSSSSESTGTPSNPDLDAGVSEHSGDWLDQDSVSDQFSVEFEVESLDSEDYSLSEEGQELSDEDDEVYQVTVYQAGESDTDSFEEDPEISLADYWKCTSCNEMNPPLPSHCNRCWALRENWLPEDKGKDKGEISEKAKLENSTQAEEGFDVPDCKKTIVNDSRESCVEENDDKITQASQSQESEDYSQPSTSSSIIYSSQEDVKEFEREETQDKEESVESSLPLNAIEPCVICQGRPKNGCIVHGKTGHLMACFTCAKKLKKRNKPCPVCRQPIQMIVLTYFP

[2] = target: T1, Casein kinase I/MDM2 (Homo sapiens); experiment: Inhibition of CK1-MDM2 complex in human A375 cells assessed as effect on p21 protein level at 0.2 to 40 uM after 24 hrs by immunoblotting analysis; assay type: cell-based; details: A-375
[3] = target: T1, Casein kinase I/MDM2 (Homo sapiens); experiment: Inhibition of CK1-MDM2 complex in human A375 cells assessed as decrease in MDM2 protein level at 0.2 to 40 uM after 24 hrs by immunoblotting analysis; assay type: cell-based; details: A-375
[4] = target: T1, Casein kinase I/MDM2 (Homo sapiens); experiment: Inhibition of CK1-MDM2 complex in human A375 cells assessed as increase in p53 protein level at 0.2 to 40 uM after 24 hrs by immunoblotting analysis; assay type: cell-based; details: A-375
[5] = target: Rho-associated protein kinase 2 (Rattus norvegicus) (UniProt Q62868); experiment: Inhibition of rat ROCK2 assessed as residual activity at 25 uM relative to control
Chain of Rho-associated protein kinase 2 (Rattus norvegicus) (Q62868 whole entry, looked up): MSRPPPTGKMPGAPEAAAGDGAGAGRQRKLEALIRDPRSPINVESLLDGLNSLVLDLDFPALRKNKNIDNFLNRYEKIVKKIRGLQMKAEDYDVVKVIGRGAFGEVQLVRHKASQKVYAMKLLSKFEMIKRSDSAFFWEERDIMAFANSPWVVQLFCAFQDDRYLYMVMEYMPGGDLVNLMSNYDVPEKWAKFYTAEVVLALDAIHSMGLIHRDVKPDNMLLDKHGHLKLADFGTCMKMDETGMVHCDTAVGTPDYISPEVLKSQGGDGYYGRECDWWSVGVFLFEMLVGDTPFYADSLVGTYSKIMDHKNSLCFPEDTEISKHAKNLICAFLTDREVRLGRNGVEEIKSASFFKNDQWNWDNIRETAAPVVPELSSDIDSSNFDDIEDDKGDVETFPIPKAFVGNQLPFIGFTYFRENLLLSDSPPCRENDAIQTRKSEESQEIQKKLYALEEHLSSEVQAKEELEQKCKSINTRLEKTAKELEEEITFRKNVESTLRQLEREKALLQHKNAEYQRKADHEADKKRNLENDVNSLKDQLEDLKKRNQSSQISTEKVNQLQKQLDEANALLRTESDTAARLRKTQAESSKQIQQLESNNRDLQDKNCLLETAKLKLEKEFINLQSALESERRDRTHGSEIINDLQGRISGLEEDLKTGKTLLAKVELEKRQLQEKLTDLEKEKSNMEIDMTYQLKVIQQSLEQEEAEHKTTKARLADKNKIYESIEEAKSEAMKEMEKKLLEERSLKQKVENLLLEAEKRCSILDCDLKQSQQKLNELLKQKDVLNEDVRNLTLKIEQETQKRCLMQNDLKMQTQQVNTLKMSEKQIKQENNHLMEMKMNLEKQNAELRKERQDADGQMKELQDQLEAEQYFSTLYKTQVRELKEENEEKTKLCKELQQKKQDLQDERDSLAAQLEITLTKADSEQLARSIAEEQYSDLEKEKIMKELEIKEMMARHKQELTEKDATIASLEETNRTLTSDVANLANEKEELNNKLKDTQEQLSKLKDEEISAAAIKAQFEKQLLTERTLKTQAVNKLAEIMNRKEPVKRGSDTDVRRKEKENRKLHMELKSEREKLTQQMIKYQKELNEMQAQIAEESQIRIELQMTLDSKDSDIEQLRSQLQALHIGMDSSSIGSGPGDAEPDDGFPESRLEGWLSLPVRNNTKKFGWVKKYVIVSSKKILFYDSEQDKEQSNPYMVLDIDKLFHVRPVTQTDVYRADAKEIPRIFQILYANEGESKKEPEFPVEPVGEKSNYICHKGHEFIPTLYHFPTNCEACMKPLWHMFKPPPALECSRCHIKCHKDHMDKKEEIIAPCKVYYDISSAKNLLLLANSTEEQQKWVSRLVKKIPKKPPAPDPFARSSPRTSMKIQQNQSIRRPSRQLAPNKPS

Bos taurus = species on record: Bos taurus; experiment: Inhibition of cow PKA assessed as residual activity at 25 uM relative to control
Rattus norvegicus [6] = species on record: Rattus norvegicus; experiment: Inhibition of rat AMPK assessed as residual activity at 25 uM relative to control
[7] = target: Proto-oncogene tyrosine-protein kinase Src (Homo sapiens) (UniProt P12931); experiment: Inhibition of human SRC assessed as residual activity at 25 uM relative to control
Chain of Proto-oncogene tyrosine-protein kinase Src (Homo sapiens) (P12931 2-536 limits assumed): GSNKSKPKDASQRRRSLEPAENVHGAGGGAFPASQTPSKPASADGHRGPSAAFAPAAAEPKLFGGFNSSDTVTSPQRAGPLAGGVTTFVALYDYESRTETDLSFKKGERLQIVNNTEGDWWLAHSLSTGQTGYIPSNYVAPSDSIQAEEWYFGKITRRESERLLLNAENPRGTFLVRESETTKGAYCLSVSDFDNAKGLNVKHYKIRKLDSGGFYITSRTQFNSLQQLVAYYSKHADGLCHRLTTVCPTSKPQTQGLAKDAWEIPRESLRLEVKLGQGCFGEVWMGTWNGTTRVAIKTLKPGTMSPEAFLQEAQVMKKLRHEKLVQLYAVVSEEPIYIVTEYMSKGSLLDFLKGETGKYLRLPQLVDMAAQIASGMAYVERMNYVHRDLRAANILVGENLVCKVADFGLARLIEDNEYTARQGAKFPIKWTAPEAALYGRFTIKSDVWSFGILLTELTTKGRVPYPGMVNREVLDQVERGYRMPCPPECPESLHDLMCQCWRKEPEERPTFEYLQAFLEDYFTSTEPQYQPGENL

Oryctolagus cuniculus [8] = species on record: Oryctolagus cuniculus; experiment: Inhibition of rabbit MKK1 assessed as residual activity at 25 uM relative to control
[9] = target: Dual specificity tyrosine-phosphorylation-regulated kinase 1A (Rattus norvegicus) (UniProt Q63470); experiment: Inhibition of rat DYRK1alpha assessed as residual activity at 25 uM relative to control
[10] = target: Casein kinase I isoform delta (Rattus norvegicus) (UniProt Q06486); experiment: Inhibition of rat CK1delta assessed as residual activity at 25 uM relative to control
Chain of Casein kinase I isoform delta (Rattus norvegicus) (Q06486 whole entry, looked up, canonical isoform): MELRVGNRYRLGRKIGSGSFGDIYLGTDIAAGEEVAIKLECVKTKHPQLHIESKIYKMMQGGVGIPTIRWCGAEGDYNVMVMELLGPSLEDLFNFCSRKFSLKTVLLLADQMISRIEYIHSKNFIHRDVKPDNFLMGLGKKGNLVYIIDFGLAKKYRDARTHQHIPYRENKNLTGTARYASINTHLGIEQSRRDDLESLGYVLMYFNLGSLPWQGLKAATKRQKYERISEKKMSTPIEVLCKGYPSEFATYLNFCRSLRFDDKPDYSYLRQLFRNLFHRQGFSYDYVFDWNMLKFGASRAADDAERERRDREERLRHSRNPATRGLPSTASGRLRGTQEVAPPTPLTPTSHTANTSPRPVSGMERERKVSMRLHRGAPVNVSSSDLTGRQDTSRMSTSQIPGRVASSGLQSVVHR

[11] = target: Cyclin-dependent kinase 2 (Homo sapiens) (UniProt P24941); experiment: Inhibition of human CDK2 assessed as residual activity at 25 uM relative to control
A-375 [12] = experiment: Cell cycle arrest in human A375 cells assessed as accumulation at G2-M phase at 80 uM after 48 hrs by FACS flow cytometric analysis (reference value: 17.3%); assay type: functional
A-375 [13] = experiment: Cell cycle arrest in human A375 cells assessed as accumulation at S phase at 80 uM after 48 hrs by FACS flow cytometric analysis (reference value: 25.1%); assay type: functional
A-375 [14] = experiment: Cell cycle arrest in human A375 cells assessed as accumulation at sub-G1 phase at 80 uM after 48 hrs by FACS flow cytometric analysis (reference value: 2.17%); assay type: functional
A-375 [15] = experiment: Cell cycle arrest in human A375 cells assessed as accumulation at G0-G1 phase at 80 uM after 48 hrs by FACS flow cytometric analysis (reference value: 55.4%); assay type: functional
A-375 [16] = experiment: Cell cycle arrest in human A375 cells assessed as accumulation at G2-M phase at 40 uM after 48 hrs by FACS flow cytometric analysis (reference value: 17.3%); assay type: functional
A-375 [17] = experiment: Cell cycle arrest in human A375 cells assessed as accumulation at S phase at 40 uM after 48 hrs by FACS flow cytometric analysis (reference value: 25.1%); assay type: functional
A-375 [18] = experiment: Cell cycle arrest in human A375 cells assessed as accumulation at G0-G1 phase at 40 uM after 48 hrs by FACS flow cytometric analysis (reference value: 55.4%); assay type: functional
A-375 [19] = experiment: Cell cycle arrest in human A375 cells assessed as accumulation at sub-G1 phase at 40 uM after 48 hrs by FACS flow cytometric analysis (reference value: 2.17%); assay type: functional
A-375 [20] = experiment: Cell cycle arrest in human A375 cells assessed as accumulation at S phase at 20 uM after 48 hrs by FACS flow cytometric analysis (reference value: 25.1%); assay type: functional
A-375 [21] = experiment: Cell cycle arrest in human A375 cells assessed as accumulation at G2-M phase at 20 uM after 48 hrs by FACS flow cytometric analysis (reference value: 17.3%); assay type: functional
A-375 [22] = experiment: Cell cycle arrest in human A375 cells assessed as accumulation at G0-G1 phase at 20 uM after 48 hrs by FACS flow cytometric analysis (reference value: 55.4%); assay type: functional
A-375 [23] = experiment: Cell cycle arrest in human A375 cells assessed as accumulation at sub-G1 phase at 20 uM after 48 hrs by FACS flow cytometric analysis (reference value: 2.17%); assay type: functional
A-375 [24] = experiment: Cell cycle arrest in human A375 cells assessed as accumulation at G2-M phase at 10 uM after 48 hrs by FACS flow cytometric analysis (reference value: 17.3%); assay type: functional
A-375 [25] = experiment: Cell cycle arrest in human A375 cells assessed as accumulation at S phase at 10 uM after 48 hrs by FACS flow cytometric analysis (reference value: 25.1%); assay type: functional
A-375 [26] = experiment: Cell cycle arrest in human A375 cells assessed as accumulation at G0-G1 phase at 10 uM after 48 hrs by FACS flow cytometric analysis (reference value: 55.4%); assay type: functional
A-375 [27] = experiment: Cell cycle arrest in human A375 cells assessed as accumulation at sub-G1 phase at 10 uM after 48 hrs by FACS flow cytometric analysis (reference value: 2.17%); assay type: functional
A-375 [28] = experiment: Cytotoxicity against human A375 cells assessed as reduction in cell number at 10 to 40 uM after 24 hrs by light microscopic analysis relative to control; assay type: functional, cell-based
[29] = target: Mitogen-activated protein kinase 14 (Homo sapiens, UniProt Q16539); experiment: Inhibition of human p38alpha MAPK in presence of 50 uM ATP; details: read-out: IC50
Chain of Mitogen-activated protein kinase 14 (Q16539 whole entry, canonical isoform): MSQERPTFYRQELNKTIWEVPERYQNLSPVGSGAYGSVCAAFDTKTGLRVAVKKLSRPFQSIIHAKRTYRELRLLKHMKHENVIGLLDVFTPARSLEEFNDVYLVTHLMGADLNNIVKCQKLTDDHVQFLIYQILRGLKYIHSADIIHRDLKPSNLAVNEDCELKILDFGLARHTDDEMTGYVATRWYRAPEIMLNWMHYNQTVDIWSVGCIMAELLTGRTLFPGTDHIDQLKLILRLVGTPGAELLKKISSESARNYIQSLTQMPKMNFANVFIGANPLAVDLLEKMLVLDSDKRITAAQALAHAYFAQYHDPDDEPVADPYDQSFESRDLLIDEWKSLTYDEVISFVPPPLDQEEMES

[30] = target: Casein kinase I isoform delta (Rattus norvegicus, UniProt Q06486); experiment: Inhibition of rat CK1delta in presence of 20 uM ATP
Chain of Casein kinase I isoform delta (Q06486 whole entry, canonical isoform): as the sequence (Q06486 whole entry, looked up, canonical isoform) above

[31] = target: T2, Serine/threonine-protein kinase Chk1 (Homo sapiens, UniProt O14757); experiment: Inhibition of human CHK1 in presence of 20 uM ATP
T2 sequence (O14757 whole entry): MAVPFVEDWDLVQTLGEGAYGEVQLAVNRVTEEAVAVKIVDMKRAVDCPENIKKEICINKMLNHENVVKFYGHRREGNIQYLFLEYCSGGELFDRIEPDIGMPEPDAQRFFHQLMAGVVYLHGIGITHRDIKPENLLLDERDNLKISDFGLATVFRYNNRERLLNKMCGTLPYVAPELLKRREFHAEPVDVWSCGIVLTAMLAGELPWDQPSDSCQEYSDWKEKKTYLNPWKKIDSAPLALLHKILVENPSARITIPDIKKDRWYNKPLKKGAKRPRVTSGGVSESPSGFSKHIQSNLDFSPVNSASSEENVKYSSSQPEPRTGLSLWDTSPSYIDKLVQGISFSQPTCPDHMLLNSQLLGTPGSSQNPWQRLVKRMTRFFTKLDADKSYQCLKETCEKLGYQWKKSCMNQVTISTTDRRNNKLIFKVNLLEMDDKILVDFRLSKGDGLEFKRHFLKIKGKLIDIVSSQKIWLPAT

[32] = target: Rho-associated protein kinase 2 (Rattus norvegicus) (UniProt Q62868); experiment: Inhibition of rat ROCK2 assessed as residual activity at 10 uM relative to control
Rattus norvegicus [33] = species on record: Rattus norvegicus; experiment: Inhibition of rat AMPK assessed as residual activity at 10 uM relative to control
[34] = target: Proto-oncogene tyrosine-protein kinase Src (Homo sapiens) (UniProt P12931); experiment: Inhibition of human SRC assessed as residual activity at 10 uM relative to control
Oryctolagus cuniculus [35] = species on record: Oryctolagus cuniculus; experiment: Inhibition of rabbit MKK1 assessed as residual activity at 10 uM relative to control
[36] = target: Dual specificity tyrosine-phosphorylation-regulated kinase 1A (Rattus norvegicus) (UniProt Q63470); experiment: Inhibition of rat DYRK1alpha assessed as residual activity at 10 uM relative to control
[37] = target: Casein kinase I isoform delta (Rattus norvegicus) (UniProt Q06486); experiment: Inhibition of rat CK1delta assessed as residual activity at 10 uM relative to control
[38] = target: Cyclin-dependent kinase 2 (Homo sapiens) (UniProt P24941); experiment: Inhibition of human CDK2 assessed as residual activity at 10 uM relative to control

inhibition [1]: Active
inhibition [2]: inactive
inhibition [3]: Active
inhibition [4]: Active
SMILES: O=C(Nc1n[nH]c2ncc(-c3cccnc3)cc12)C1CCCC1

SMILES: COc1cc(OC)c(C=C2C(=O)Nc3ccccc32)c(OC)c1
Activity [5]: 78%
Activity (Bos taurus): 82%
Activity (Rattus norvegicus [6]): 71%
Activity [7]: 70%
Activity (Oryctolagus cuniculus [8]): 86%
Activity [9]: 73%
Activity [10]: 9%
Activity [11]: 83%

IC50 [29]: 4.15 µM
IC50 [30]: 0.353 µM
IC50 [31]: Not Active
Activity [32]: 105%
Activity (Rattus norvegicus [33]): 98%
Activity [34]: 82%
Activity (Oryctolagus cuniculus [35]): 93%
Activity [36]: 86%
Activity [37]: 4%
Activity [38]: 113%
SMILES: NC(=O)c1ccc(-c2nc(-c3ccc4c(c3)OCCO4)c(-c3ccccn3)[nH]2)cc1
Activity (A-375 [12]): 4.9%
Activity (A-375 [13]): 9.33%
Activity (A-375 [14]): 32.7%
Activity (A-375 [15]): 52.9%
Activity (A-375 [16]): 9.66%
Activity (A-375 [17]): 24.3%
Activity (A-375 [18]): 43.1%
Activity (A-375 [19]): 22.3%
Activity (A-375 [20]): 31.9%
Activity (A-375 [21]): 18.8%
Activity (A-375 [22]): 41.9%
Activity (A-375 [23]): 6.96%
Activity (A-375 [24]): 13.7%
Activity (A-375 [25]): 26.6%
Activity (A-375 [26]): 55.4%
Activity (A-375 [27]): 3.92%
Activity (A-375 [28]): Active
